# Literature values as cited in article PMC9851200, “Multiparameter phenotypic screening for endogenous TFEB and TFE3 translocation identifies novel chemical series modulating lysosome function” (Autophagy, 2022).
# Key:
# Design in all cases: method as in original PKIS2 published data
# [1] = target: kinases (KINOMEscan panel) (Homo sapiens, UniProt O75460); conditions: Published KINOMEscan; ref original PKIS2 published data; cited from earlier work
# [2] = target: kinases (KINOMEscan panel) (Homo sapiens, UniProt P06213); conditions: kinase INSR; Published KINOMEscan; ref original PKIS2 published data; cited from earlier work
# [3] = target: kinases (KINOMEscan panel) (Homo sapiens, UniProt P17612); conditions: kinase PRKACA; Published KINOMEscan; ref original PKIS2 published data; cited from earlier work
# [4] = target: T1, kinases (KINOMEscan panel) (Homo sapiens, UniProt Q13237); conditions: PRKG2; Published KINOMEscan; ref original PKIS2 published data; cited from earlier work
# T1 sequence (Q13237 1-762): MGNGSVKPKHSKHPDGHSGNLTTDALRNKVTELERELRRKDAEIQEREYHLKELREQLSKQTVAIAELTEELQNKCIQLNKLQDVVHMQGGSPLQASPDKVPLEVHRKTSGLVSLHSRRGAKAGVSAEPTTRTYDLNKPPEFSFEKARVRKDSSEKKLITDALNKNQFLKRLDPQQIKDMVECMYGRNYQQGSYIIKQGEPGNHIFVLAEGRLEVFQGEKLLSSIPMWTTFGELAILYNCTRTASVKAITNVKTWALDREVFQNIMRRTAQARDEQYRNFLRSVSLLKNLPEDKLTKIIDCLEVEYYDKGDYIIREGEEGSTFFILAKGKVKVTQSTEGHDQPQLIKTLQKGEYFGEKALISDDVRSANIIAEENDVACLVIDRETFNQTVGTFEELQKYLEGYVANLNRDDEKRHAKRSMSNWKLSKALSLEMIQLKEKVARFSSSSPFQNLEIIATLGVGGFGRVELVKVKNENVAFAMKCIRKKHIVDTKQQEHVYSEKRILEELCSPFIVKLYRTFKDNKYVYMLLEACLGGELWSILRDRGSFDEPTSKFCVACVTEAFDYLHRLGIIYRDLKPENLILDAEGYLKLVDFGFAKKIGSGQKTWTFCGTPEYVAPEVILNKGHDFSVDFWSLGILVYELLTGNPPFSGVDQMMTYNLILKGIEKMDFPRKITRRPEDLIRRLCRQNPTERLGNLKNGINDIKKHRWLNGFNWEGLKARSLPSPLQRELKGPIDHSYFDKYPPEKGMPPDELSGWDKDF
# [5] = target: kinases (KINOMEscan panel) (Homo sapiens, UniProt Q14004); conditions: cited from earlier work
# [6] = target: T2, kinases (KINOMEscan panel) (Homo sapiens, UniProt Q6PHR2); conditions: kinase ULK3; Published KINOMEscan; ref original PKIS2 published data; cited from earlier work
# T2 sequence (Q6PHR2 1-472): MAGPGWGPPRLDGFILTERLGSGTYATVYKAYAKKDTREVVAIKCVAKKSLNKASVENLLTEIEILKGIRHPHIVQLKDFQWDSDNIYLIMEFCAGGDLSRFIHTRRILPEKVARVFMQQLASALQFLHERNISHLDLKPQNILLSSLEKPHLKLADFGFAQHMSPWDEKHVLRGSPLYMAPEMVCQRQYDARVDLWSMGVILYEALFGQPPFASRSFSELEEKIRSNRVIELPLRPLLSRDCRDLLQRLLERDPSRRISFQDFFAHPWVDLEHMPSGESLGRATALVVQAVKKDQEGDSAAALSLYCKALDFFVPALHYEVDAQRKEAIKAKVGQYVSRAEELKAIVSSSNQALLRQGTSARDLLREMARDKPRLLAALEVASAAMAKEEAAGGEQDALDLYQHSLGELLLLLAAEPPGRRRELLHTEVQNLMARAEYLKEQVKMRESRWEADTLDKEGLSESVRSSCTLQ
# [7] = target: kinases (KINOMEscan panel) (Homo sapiens, UniProt Q86V86); conditions: kinase PIM3; Published KINOMEscan; ref original PKIS2 published data; cited from earlier work
# [8] = target: T3, kinases (KINOMEscan panel) (Homo sapiens, UniProt Q8N752); conditions: CSNK1A1L; Published KINOMEscan; ref original PKIS2 published data; cited from earlier work
# T3 sequence (Q8N752 1-337): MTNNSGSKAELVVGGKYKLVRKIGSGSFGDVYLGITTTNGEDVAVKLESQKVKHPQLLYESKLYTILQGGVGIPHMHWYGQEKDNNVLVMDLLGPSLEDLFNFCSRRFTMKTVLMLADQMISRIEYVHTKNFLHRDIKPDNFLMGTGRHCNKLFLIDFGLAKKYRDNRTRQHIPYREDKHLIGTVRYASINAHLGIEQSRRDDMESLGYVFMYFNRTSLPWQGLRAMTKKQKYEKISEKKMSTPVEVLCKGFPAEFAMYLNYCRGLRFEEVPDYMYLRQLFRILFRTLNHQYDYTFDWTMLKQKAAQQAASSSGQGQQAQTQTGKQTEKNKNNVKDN
# [9] = target: kinases (KINOMEscan panel) (Homo sapiens, UniProt Q9H0K1); conditions: kinase SIK2; Published KINOMEscan; ref original PKIS2 published data; cited from earlier work
# [10] = target: kinases (KINOMEscan panel) (Homo sapiens, UniProt Q9Y4K4); conditions: kinase MAP4K5; Published KINOMEscan; ref original PKIS2 published data; cited from earlier work
# kinases (KINOMEscan panel) (Homo sapiens, UniProt Q9Y4K4), sequence (Q9Y4K4 whole entry): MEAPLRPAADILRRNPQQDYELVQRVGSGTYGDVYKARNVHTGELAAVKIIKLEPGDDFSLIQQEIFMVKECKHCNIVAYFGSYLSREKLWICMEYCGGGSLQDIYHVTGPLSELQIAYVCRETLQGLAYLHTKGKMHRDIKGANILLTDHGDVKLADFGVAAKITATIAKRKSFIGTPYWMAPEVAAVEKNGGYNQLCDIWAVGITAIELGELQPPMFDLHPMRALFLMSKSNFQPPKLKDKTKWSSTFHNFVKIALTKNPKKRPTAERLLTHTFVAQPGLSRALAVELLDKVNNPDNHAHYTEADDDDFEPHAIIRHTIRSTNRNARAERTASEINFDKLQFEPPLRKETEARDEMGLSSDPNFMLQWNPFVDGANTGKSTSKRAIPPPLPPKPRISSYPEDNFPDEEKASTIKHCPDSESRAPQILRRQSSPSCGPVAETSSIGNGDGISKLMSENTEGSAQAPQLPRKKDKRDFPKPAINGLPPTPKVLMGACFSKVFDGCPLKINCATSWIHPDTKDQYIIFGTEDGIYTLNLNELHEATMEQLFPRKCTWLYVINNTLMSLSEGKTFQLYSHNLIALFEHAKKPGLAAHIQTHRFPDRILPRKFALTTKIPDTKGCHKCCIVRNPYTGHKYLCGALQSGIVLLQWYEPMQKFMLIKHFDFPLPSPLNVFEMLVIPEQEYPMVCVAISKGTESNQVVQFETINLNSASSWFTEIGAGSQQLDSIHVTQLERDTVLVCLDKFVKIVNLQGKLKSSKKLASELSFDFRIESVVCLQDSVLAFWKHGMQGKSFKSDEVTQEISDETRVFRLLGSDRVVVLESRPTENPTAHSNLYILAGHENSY
# kinases (KINOMEscan panel) (Homo sapiens, UniProt Q9H0K1), sequence (Q9H0K1 whole entry): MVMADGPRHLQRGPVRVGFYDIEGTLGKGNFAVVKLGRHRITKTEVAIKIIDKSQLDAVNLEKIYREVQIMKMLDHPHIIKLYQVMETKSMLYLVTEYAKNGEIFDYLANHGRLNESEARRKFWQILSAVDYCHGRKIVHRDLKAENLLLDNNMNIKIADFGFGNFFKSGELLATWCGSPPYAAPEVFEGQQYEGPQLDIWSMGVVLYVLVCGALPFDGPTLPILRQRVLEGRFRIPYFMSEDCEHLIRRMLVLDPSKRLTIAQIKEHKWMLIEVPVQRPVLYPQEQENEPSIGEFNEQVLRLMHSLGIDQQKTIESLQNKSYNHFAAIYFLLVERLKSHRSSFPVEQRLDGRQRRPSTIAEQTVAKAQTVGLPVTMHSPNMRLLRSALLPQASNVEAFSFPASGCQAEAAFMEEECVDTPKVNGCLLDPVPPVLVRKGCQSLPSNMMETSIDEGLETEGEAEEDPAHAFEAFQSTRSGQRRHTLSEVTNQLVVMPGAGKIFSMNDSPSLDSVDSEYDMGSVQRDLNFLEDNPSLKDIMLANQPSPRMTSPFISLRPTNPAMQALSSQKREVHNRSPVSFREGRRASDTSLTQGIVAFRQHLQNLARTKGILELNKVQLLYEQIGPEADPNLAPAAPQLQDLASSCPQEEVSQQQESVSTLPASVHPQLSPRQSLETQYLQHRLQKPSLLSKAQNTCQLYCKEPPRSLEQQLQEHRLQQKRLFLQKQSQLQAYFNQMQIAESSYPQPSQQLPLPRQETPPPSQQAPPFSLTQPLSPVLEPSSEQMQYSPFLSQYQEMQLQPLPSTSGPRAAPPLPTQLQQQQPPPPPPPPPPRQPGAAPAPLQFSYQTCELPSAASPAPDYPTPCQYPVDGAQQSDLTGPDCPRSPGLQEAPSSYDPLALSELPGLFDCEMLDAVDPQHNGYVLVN
# kinases (KINOMEscan panel) (Homo sapiens, UniProt O75460), sequence (O75460 19-977): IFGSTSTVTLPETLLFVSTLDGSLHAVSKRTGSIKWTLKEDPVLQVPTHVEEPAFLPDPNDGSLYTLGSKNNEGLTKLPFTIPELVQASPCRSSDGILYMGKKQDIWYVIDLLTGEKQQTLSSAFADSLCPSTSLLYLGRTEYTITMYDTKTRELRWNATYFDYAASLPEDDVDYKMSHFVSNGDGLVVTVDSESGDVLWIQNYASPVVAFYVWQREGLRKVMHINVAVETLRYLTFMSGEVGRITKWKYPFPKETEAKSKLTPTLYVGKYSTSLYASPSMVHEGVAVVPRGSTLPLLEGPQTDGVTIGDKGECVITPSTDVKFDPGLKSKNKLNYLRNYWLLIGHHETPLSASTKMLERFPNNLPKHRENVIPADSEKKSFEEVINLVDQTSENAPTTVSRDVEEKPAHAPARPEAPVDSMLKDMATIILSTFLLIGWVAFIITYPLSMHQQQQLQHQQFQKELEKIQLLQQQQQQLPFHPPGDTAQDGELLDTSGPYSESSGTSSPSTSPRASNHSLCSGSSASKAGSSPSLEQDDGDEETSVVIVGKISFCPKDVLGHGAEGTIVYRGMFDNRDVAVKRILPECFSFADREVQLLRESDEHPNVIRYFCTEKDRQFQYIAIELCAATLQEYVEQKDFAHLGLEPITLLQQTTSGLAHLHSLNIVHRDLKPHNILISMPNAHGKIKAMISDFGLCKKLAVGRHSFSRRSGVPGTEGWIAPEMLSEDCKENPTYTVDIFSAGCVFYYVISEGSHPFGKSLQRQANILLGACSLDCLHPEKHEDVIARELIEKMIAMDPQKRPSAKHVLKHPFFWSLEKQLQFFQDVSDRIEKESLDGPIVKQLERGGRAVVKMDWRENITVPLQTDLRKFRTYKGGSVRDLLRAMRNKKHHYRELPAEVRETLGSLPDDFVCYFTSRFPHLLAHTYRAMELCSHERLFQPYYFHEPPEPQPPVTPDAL
# kinases (KINOMEscan panel) (Homo sapiens, UniProt P06213), sequence (P06213 28-1382): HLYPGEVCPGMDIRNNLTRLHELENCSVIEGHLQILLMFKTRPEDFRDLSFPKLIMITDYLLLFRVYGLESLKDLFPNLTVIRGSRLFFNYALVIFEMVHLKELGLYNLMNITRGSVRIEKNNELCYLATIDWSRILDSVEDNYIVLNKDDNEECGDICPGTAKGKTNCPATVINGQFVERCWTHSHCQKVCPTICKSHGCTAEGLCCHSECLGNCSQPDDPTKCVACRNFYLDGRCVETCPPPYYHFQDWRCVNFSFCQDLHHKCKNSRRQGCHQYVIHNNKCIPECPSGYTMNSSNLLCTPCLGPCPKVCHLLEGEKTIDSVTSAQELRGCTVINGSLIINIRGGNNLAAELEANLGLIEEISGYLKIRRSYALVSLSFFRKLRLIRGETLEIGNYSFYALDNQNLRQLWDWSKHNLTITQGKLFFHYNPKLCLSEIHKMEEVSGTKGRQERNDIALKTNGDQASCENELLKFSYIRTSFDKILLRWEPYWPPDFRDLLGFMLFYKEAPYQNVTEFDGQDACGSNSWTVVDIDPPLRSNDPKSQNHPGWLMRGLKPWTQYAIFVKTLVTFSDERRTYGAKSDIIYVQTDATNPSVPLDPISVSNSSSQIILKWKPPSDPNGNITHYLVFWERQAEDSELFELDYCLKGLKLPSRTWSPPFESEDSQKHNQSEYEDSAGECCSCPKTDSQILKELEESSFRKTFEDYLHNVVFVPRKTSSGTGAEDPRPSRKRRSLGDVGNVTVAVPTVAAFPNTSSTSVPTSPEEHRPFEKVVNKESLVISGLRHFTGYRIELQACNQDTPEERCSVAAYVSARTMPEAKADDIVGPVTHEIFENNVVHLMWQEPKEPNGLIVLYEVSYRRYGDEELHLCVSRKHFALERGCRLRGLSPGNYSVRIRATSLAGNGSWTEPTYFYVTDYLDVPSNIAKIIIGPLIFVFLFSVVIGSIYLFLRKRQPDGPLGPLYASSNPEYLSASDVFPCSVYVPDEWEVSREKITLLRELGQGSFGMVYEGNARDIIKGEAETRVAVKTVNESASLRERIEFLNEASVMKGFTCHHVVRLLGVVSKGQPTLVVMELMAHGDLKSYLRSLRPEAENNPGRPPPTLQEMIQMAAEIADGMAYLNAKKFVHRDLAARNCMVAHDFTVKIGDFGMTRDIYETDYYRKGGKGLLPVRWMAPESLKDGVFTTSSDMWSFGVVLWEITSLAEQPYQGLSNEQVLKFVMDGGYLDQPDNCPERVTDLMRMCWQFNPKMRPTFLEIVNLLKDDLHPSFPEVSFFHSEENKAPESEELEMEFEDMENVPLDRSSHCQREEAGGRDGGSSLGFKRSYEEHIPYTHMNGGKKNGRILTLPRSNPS
compound,measurement,setting,value
Cc1cccc(-c2nc(Nc3ccncc3)c3ccccc3n2)n1 [NK215],KINOMEscan ERN1,[1],0
same,KINOMEscan INSR,[2],7
same,KINOMEscan PRKACA,[3],23
same,KINOMEscan PRKG2,[4],0
same,KINOMEscan CDK13,[5],0
same,KINOMEscan ULK3,[6],8
same,KINOMEscan PIM3,[7],0
same,KINOMEscan CSNK1A1L,[8],10
same,KINOMEscan SIK2,[9],0
same,KINOMEscan MAP4K5,[10],0
